Measurements: patent publication US11413337B2, “Peptide conjugated particles for the treatment of inflammation” (Northwestern University, priority 2012, dated 2022)
Where no end group is shown, it is not given here.

Key:
mediastinal lymph nodes = test: OVA-specific in vitro recall responses from mediastinal lymph nodes; type: cell-based, mouse
From the text: Moreover treatment with OVA-PLG decreases the release of cytokines after restimulation with OVA.

[1] = tested on: allergic airway inflammation; test: prophylactic allergic airway inflammation, OVA/Alum; type: in vivo, mouse
Protocol: To test the prophylactic effect of OVA encapsulated in PLG particles on airway inflammation, mice were treated intravenously with OVA-PLG at day −7. On day 0, the mice received intraperitoneal injections of OVA/Alum at a dose of 10 μg/mouse. On day 7, the mice were again treated intravenously with OVA-PLG and received another 10 μg/mouse ip injection of OVA/Alum on day 14. Between days 28 and 30, the mice were treated three times with aerosolized OVA.

[2] = tested on: allergic airway inflammation; test: therapeutic allergic airway inflammation, OVA/Alum; type: in vivo, mouse
Protocol: To test the therapeutic effect of OVA encapsulated in PLG particles on airway inflammation, mice were treated intraperitoneally with OVA/Alum at a dose of 10 μg/mouse on day 0 and day 14. The mice were intravenously administered with OVA-PLG on days 28, and 42. Between days 56-58, the mice were treated three times with aerosolized OVA.
The animals were treated as described above except that on days 28 and 42, the mice were treated with either OVA encapsulated in PLG particles, or OVA coupled to PLG particles.

CD45.1 donor cells = test: engraftment of male CD45.1 bone marrow cells in female CD45.2 mice; type: in vivo, mouse
From the text: Female CD45.2 mice were tolerized with either OVA-PLG or the control peptide Dby-PLG (the major H-Y antigen expressed by Male C57BL/6 mice) on day −7. On day −1, the mice were irradiated with 200 rads and were then transplanted with 1×10^6, 5×10^6, or 1×10^7 bone marrow cells from male CD45.1 mice on day 0. The recipient mice were then tolerized with either OVA-PLG, Dby-SP, or Dby-PLG on day 1 and the blood harvested for FACS analysis of chimerism.

[3] = tested on: Relapsing Experimental Autoimmune Encephalitis; test: treatment of active R-EAE at day 10, route of administration; type: in vivo, mouse
Protocol: Experiments were conducted during development of embodiments of the present invention to investigate the ability of the PLG-PLP139-151 particles to treat disease rather than prevent disease, and to determine whether the route of administration affected the development of disease. Mice were immunized at day 0 with PLP139-151 and an adjuvant. Mice normally have maximal clinical scores at day 12-14. In this model, the mice were treated at day 10 with the PLG-PLP139-151 particles or with control PLG-OVA323-339 particles either via intravenous (iv) administration, intraperitoneal (ip) administration, subcutaneous (sc) administration, or orally. […] This is in contrast to animals treated with PLP139-151 polystyrene particles, whereby >70% of animals where observed to die from anaphylaxis.

cervical spinal cord = test: spinal cord histology and in vivo imaging in R-EAE; set-up: species or system mouse
Protocol: An additional therapeutic tolerance strategy was performed by delivering PLP139-151-PLG or OVA323-339 PLG to mice. […] Mice were treated with PLP-PLG or OVA323-339-PLG and the tissue was retrieved at day 40. The cervical spinal cord was isolated and sectioned to investigate the immune response within the CNS, which underlies the pathology of R-EAE and multiple sclerosis.
The clinical scores and percent incidence of EAE were determined (FIG. 10B) and the spinal cords observed via in vivo imaging (FIGS. 10A and 11). […] The bar graphs give the numerical numbers to the signal strength shown in the brain and SC scans.

SJL/J mice with EAE = test: iv injection during EAE remission (day 21), anaphylaxis; type: in vivo, mouse; conditions: administration during remission, d21
Protocol: EAE was induced in six to eight week old female SJL/J mice by subcutaneous injection of PLP139-151 in CFA, and development of clinical disease was monitored and recorded (FIG. 5B). On d21 relative to disease induction, mice were given iv injections of soluble PLP139-151 (clear squares), soluble OVA323-339 (clear circles), or the same peptides coupled to PLG nanoparticles (solids). Temperature of animals was monitored and recorded every 10 minutes for 1 hour following injection (FIG. 5A).

adoptive EAE = test: adoptive transfer EAE treated with antigen-coupled PLG particles; type: in vivo, mouse; conditions: for mean clinical score: treated at day 2
Protocol: Experiments were conducted during development of embodiments of the present invention to investigate a second model of active disease termed adoptive transfer. Rather than immunizing the animals with the peptide, the lymphocytes from the spleen of mice with active disease were transferred to a recipient, who would subsequently develop disease. Experiments were conducted during development of embodiments of the present invention to characterize the ability of the PLG nanoparticles to deactivate the adoptively transferred activated effector cells.
Therapeutic tolerance induced by PLP139-151-PLG particles was compared in active and adoptive EAE. Adoptive EAE was induced in six to eight-week old female SJL/J mice by adoptive transfer of 2.5×10^6 PLP139-151-activated blasts. Mice were injected iv with PLP139-151 (squares) or OVA323-339 (circles) peptide coupled to 500 nm PLG nanoparticles 2 days (FIG. 14A) or 14 days (FIG. 14C) following disease induction. Clinical disease scores were compared to those following treatment with antigen-coupled splenocytes (FIG. 14A). Brain and spinal cord were collected from PLP139-151- or OVA323-339-tolerized mice for histological analysis on day 42. Sections from mice from panel A were stained for PLP protein and CD45 (FIG. 14B). Spinal cord sections from mice from panel C were stained with Luxol Fast Blue (FIG. 14D). Areas of demyelination and cellular infiltration are indicated by arrows.
SJL/J mice were injected i.v. with 500 nm PLG nanoparticles coupled with PLP139-151 (squares) or OVA323-339 (circles) 2 days following EAE induction by adoptive transfer. At the peak of disease (day 14) brains and spinal cords were removed and the number of lymphocytes (FIG. 16B), APCs (FIG. 16C), microglia (FIG. 16D), peripheral dendritic cells (FIG. 16E), myeloid dendritic cells (FIG. 16F) and macrophages (FIG. 16G) were enumerated by flow cytometry. The gating strategy for these populations is depicted in (FIG. 16A). CNS cell preparations were stimulated with PMA and ionomycin for 5 h prior to intracellular staining for IL-17A and IFN-γ (FIG. 16H).

[4] = tested on: Relapsing Experimental Autoimmune Encephalitis (R-EAE); test: prophylactic tolerance in PLP139-151/CFA-induced R-EAE, particles given day −7; type: in vivo, mouse; conditions: for clinical score: treated day −7
[5] = tested on: OVA/Alum pre-sensitized mice; test: anaphylaxis-induced temperature drop in OVA/Alum pre-sensitized animals; type: in vivo, mouse; conditions: iv on day 28; within 1 hour of delivering
Protocol: Due to the presence of active disease, anaphylaxis to the antigens is a concern, which could result in immediate mortality, and has been described with polystyrene bound particles. Anaphylaxis is associated with a significant drop in body temperature. To test whether intravenous administration of OVA-PLG induces an anaphylaxis-induced temperature drop in pre-sensitized animals, mice were immunized at day 0 with 10 μg OVA/Alum via intraperitoneal injection. On day 14, the mice were again immunized with 10 μg OVA/Alum via intraperitoneal injection, and then tolerized with OVA-PLG administered intravenously on day 21. On day 28, the mice were then tolerized with either OVA-PLG particles or OVA via intravenous administration.

## OVA-PLG: OVA with PLG particles: coupled in Example 3, encapsulated in Examples 12 and 13, OVA323 peptide control in Example 16
Mediastinal lymph nodes; after restimulation with 25 μg OVA
  lymph node proliferation: decreased
Mediastinal lymph nodes; after restimulation with OVA
  levels of IL-4, IL-5, IL-13, and IL-10: decreased
[1]
  eosinophils in the lung: reduced
  levels of serum OVA IgE: reduced
[1]; iv day −7 and day 7
  secretion of IL-4, IL-5, IL-13 and IL-10: decreased
[2]
  eosinophils in the lung: reduced
  levels of serum OVA IgE: reduced
[2]; iv days 28 and 42
  secretion of IL-4, IL-5, IL-13 and IL-10: decreased
CD45.1 donor cells; Day −7, Day +1 group, FIG. 28
  engraftment, one mouse: 12%
CD45.1 donor cells; tolerized day 1, FIG. 27
  engraftment (percent of donor CD45.1 cells), individual mice: ~10%

## PLP139-151 polystyrene particles: PLP139-151 bound to polystyrene particles (CHCLGKWLGHPDK; cysteine pairing not given here; also: bound to polystyrene particles; UniProt P60202 139-151, looked up, fragment) [reference compound]
[3]; mouse, in vivo
  animals observed to die from anaphylaxis: > 70%

## PLP139-151-PLG: immunodominant proteolipid protein PLP139-151 epitope coupled to 500 nm PLG nanoparticles (CHCLGKWLGHPDK; cysteine pairing not given here; also: coupled to 500 nm PLG nanoparticles; UniProt P60202 139-151, looked up, fragment)
Cervical spinal cord; day 40
  immune cell infiltration within the spinal cord: reduction in immune cell infiltration
Cervical spinal cord; histological analysis, tissue retrieved at day 40
  cervical spinal cord inflammation and demyelination: inhibits cervical spinal cord inflammation and demyelination
Cervical spinal cord; in vivo imaging, Angiosense and prosense
  blood brain barrier (BBB) disruption and macrophage activation in the spinal cord: inhibits blood brain barrier (BBB) disruption and macrophage activation
Cervical spinal cord; spinal cord, day 40
  staining for CD45, CD4, and CD11b: minimal staining
[3]; active EAE, iv 10 days following disease induction (FIG. 15A)
  disease (mean clinical score): reduced disease
[3]; administered intravenously
  development of disease: did not develop disease
[3]; administered intravenously, at most time points
  mean clinical scores: 0
[3]; iv, ip, sc or oral, FIG. 7
  efficiency of tolerance by route of administration: most efficient when the PLG-PLP139-151 particles are administered either intravenously or intraperitoneally
SJL/J mice with EAE
  anaphylaxis-associated mortality: does not result in any anaphylaxis-associated mortality
Adoptive EAE; adoptive EAE, iv 2 days following disease induction (FIG. 15B)
  disease (mean clinical score): reduced disease
Adoptive EAE; iv 2 or 14 days following disease induction
  tolerance induction in adoptive EAE: tolerance is induced
Adoptive EAE; iv day 2, peak of disease (day 14), flow cytometry
  infiltration of central nervous system immune cells: drastically reduced
Adoptive EAE; all but two time points through day 40
  mean clinical score: 0
Adoptive EAE; the other two time points
  mean clinical score: 0.25
[4]; day −7, FIGS. 3A and 3B
  down-regulating induction of R-EAE, by type of particle: more effective in down-regulating induction of R-EAE
[4]; to immunizing PLP139-151 epitope
  delayed-type hypersensitivity (DTH) responses: lack of delayed-type hypersensitivity (DTH) responses
[4]; all time points except days 20 to 30
  clinical score: 0
[4]; between days 20 and 30
  clinical score: under 1
[4]; treated day −7 relative to immunization
  prevention of disease induction: specifically prevented EAE development

B1: OVA-PLG: OVA with PLG particles: coupled in Example 3, encapsulated in Examples 12 and 13, OVA323 peptide control in Example 16 (conjugate, UniProt P01012 2-386, looked up)
Ovalbumin: GSIGAASMEFCFDVFKELKVHHANENIFYCPIAIMSALAMVYLGAKDSTRTQINKVVRFDKLPGFGDSIEAQCGTSVNVHSSLRDILNQITKPNDVYSFSLASRLYAEERYPILPEYLQCVKELYRGGLEPINFQTAADQARELINSWVESQTNGIIRNVLQPSSVDSQTAMVLVNAIVFKGLWEKAFKDEDTQAMPFRVTEQESKPVQMMYQIGLFRVASMASEKMKILELPFASGTMSMLVLLPDEVSGLEQLESIINFEKLTEWTSSNVMEERKIKVYLPRMKMEEKYNLTSVLMAMGITDVFSSSANLSGISSAESLKISQAVHAAHAEINEAGREVVGSAEAGVDAASVSEEFRADHPFLFCIKHIATNAVLFFGRCVSP
modifications: coupled to or encapsulated in PLG particles
[5]
  body temperature: No decrease in body temperature

B2: soluble OVA: soluble ovalbumin given intravenously (protein, UniProt P01012 2-386, looked up)
Ovalbumin: B1 Ovalbumin
[5]
  body temperature: decrease in temperature
